The structures appear in SMILES notation.

This test has as its system S. aureus strain Newman. The test is described as follows: IC50 determination of inhibition of staphyloxanthin synthesis. Format: cell-based. Conditions: Staphylococcus aureus; S. aureus strain Newman, Table 1; read-out: IC50, inhibitory activity on staphyloxanthin synthesis. As for the experimental part:
Selection of compound concentrations: based on the preliminary screening results, the ability of each compound to inhibit staphyloxanthin synthesis was determined. […] According to the assay results, 10 different concentration gradients were designed for each compound, such that the ability to inhibit staphyloxanthin synthesis comprised substantially from 0% to 100%.
Culture of the strains: single colonies of strain Newman and crtN mutant strain were picked from TSA plates, added into test tubes containing 4 mL of sterile TSB medium, and cultured at 37° C. and 250 rpm for 12 h for later use.
The relative level of staphyloxanthin synthesis at each concentration of the compound of the invention=A450 (sample)/A450 (negative control)*100%. With the molar concentration of the compound as the abscissa and the relative level of staphyloxanthin synthesis as the ordinate, a curve fitting of inhibitor concentration-inhibition rate (log(inhibitor) vs response) was performed in Graphpad prism 5.0 software, and the IC50 of the compound for inhibiting staphyloxanthin synthesis was calculated by software based on the fitting results.
S. aureus was selected for IC50 determination with respect to activity of inhibiting staphyloxanthin synthesis. […]
As to `CN(CC/C=C/c1ccc(-c2ccccc2)cc1)Cc1coc2ccccc12` [Compound IA-40, (E)-4-([1,1′-biphenyl]-4-yl)-N-(benzofuran-3-ylmethyl)-N-methylbut-3-en-1-amine], the IC50 was greater than 1 µM.

On to `COC(=O)c1ccc(/C=C/CN(C)Cc2coc3ccccc23)cc1` [Compound IA-13, (E)-N-methyl-N-[(benzofuran-3-yl)methylene]-3-(4-methylcarboxylatephenyl)prop-2-en-1-amine], for which the IC50 was determined as 0.00945 ± 0.00075 µM.

In the case of `CC(C)N(C/C=C/c1ccc(C(F)(F)F)cc1)Cc1coc2ccccc12` [Compound IB-3, (E)-N-isopropyl-N-[(benzofuran-3-yl)methylene]-3-(4-trifluoromethylphenyl)-prop-2-en-1-amine], the IC50 is greater than 1 µM.

As for `COc1ccccc1/C=C/CN(C)Cc1coc2ccccc12` [Compound IA-34, (E)-N-methyl-N-[(benzofuran-3-yl)methylene]-3-(2-methoxyphenyl)-prop-2-en-1-amine], the IC50 is greater than 1 µM.

As for `CN(C/C=C/c1ccc(C(F)(F)F)cc1F)Cc1coc2ccccc12` [Compound IA-31, (E)-N-methyl-N-[(benzofuran-3-yl)methylene]-3-(2-fluoro-4-trifluoromethyl-phenyl)-prop-2-en-1-amine], the IC50 was determined as 0.0092 ± 0.0004 µM.

As for `CCN(C/C=C/c1ccc(C(F)(F)F)cc1)Cc1coc2ccccc12` [Compound IB-2, (E)-N-ethyl-N-[(benzofuran-3-yl)methylene]-3-(4-trifluoromethylphenyl)-prop-2-en-1-amine], the IC50 is greater than 1 µM.

Take `CN(C/C=C/c1cccc([N+](=O)[O-])c1)Cc1coc2ccccc12` [Compound IA-29, (E)-N-methyl-N-[(benzofuran-3-yl)methylene]-3-(3-nitrophenyl)-prop-2-en-1-amine]: the IC50 is greater than 1 µM.

For the compound `Cc1cccc(/C=C/CN(C)Cc2coc3ccccc23)c1` [Compound IA-37, (E)-N-methyl-N-[(benzofuran-3-yl)methylene]-3-(3-methylphenyl)-prop-2-en-1-amine], the IC50 was greater than 1 µM.

For `CN(CCCc1ccc(-c2ccccc2)cc1)Cc1coc2ccccc12` [Compound IE-1, 3-([1,1′-biphenyl]-4-yl)-N-(benzofuran-3-ylmethyl)-N-methylpropan-1-amine], the IC50 was greater than 1 µM.

For the compound `CN(C/C=C/c1ccccc1Cl)Cc1coc2ccccc12` [Compound IA-8, (E)-N-methyl-N-[(benzofuran-3-yl)methylene]-3-(2-chlorophenyl)prop-2-en-1-amine], the IC50 was determined as 0.36 ± 0.0578 µM.

`CN(C/C=C/c1ccc([N+](=O)[O-])cc1)Cc1coc2ccccc12` [Compound IA-16, (E)-N-methyl-N-[(benzofuran-3-yl)methylene]-3-(4-nitrophenyl)-prop-2-en-1-amine]: the IC50 was 0.0095 ± 0.0032 µM.

Take `CN(C/C=C/c1ccc2ccccc2c1)Cc1coc2ccccc12` [Compound IA-26, (E)-N-methyl-N-[(benzofuran-3-yl)methylene]-3-(2-naphthyl)-prop-2-en-1-amine]: the IC50 came to 0.0064 ± 0.0006 µM.

`CN(C/C=C/c1cccc(C(F)(F)F)c1)Cc1coc2ccccc12` [Compound IA-18, (E)-N-methyl-N-[(benzofuran-3-yl)methylene]-3-(3-trifluoromethylphenyl)-prop-2-en-1-amine]: the IC50 is greater than 1 µM.

For the compound `CN(C/C=C/c1ccccc1C(F)(F)F)Cc1coc2ccccc12` [Compound IA-30, (E)-N-methyl-N-[(benzofuran-3-yl)methylene]-3-(2-trifluoromethylphenyl)-prop-2-en-1-amine], the IC50 was greater than 1 µM.

In the case of `CN(C/C=C/C1CCCCC1)Cc1coc2ccccc12` [Compound IA-32], the IC50 is greater than 1 µM.

In the case of `CN(C/C=C/c1cccs1)Cc1coc2ccccc12` [Compound IA-33, (E)-N-methyl-N-[(benzofuran-3-yl)methylene]-3-thiophen-2-en-1-amine], the IC50 is greater than 1 µM.

On to `CN(C/C=C/c1ccccc1)Cc1coc2ccccc12` [Compound IA-1, (E)-N-methyl-N-[(benzofuran-3-yl)methylene]-3-phenylprop-2-en-1-amine], for which the IC50 was greater than 1 µM.

`CN(C/C=C/c1ccco1)Cc1coc2ccccc12` [Compound IA-14]: the IC50 is greater than 1 µM.

Regarding `CN(C/C=C/c1ccc(C(C)(C)C)cc1)Cc1coc2ccccc12` [Compound IA-27, (E)-N-methyl-N-[(benzofuran-3-yl)methylene]-3-(4-tert-butylphenyl)-prop-2-en-1-amine], the IC50 was greater than 1 µM.

As for `CN(C/C=C/c1cccc2ccccc12)Cc1coc2ccccc12` [Compound IA-10, (E)-N-methyl-N-[(benzofuran-3-yl)methylene]-3-(naphthalen-1-yl)prop-2-en-1-amine], the IC50 is greater than 1 µM.

As to `CN(C/C=C/c1ccc(C(F)(F)F)cc1)Cc1cc2ccccc2o1` [Compound IF-1, (E)-N-(benzofuran-2-ylmethyl)-N-methyl-3-(4-(trifluoromethyl)phenyl)prop-2-en-1-amine], the IC50 amounted to 0.0703 ± 0.0052 µM.

Take `CN(C/C=C/c1ccc(C(F)F)cc1)Cc1coc2ccccc12` [Compound IA-6, (E)-N-methyl-N-[(benzofuran-3-yl)methylene]-3-(4-difluoromethylphenyl)-prop-2-en-1-amine]: the IC50 was found to be 0.0064 ± 0.0001 µM.

Consider `CN(C/C=C/c1cccc(F)c1)Cc1coc2ccccc12` [Compound IA-19, (E)-N-methyl-N-[(benzofuran-3-yl)methylene]-3-(3-fluorophenyl)-prop-2-en-1-amine], for which the IC50 was greater than 1 µM.

Consider `CN(C/C=C/c1ccc(F)cc1)Cc1coc2ccccc12` [Compound IA-4, (E)-N-methyl-N-[(benzofuran-3-yl)methylene]-3-(4-fluorophenyl)prop-2-en-1-amine], for which the IC50 was determined as 0.0741 ± 0.0027 µM.

For `CN(C/C=C/c1ccc(Cl)cc1Cl)Cc1coc2ccccc12` [Compound IA-11, (E)-N-methyl-N-[(benzofuran-3-yl)methylene]-3-(2,4-dichlorophenyl)prop-2-en-1-amine], the IC50 is 0.0062 ± 0.0005 µM.

Regarding `CN(C/C=C/c1cccc(Cl)c1)Cc1coc2ccccc12` [Compound IA-12, (E)-N-methyl-N-[(benzofuran-3-yl)methylene]-3-(3-chlorophenyl)prop-2-en-1-amine], the IC50 is greater than 1 µM.

For the compound `CN(C/C=C/C1CCCC1)Cc1coc2ccccc12` [Compound IA-7, (E)-N-methyl-N-[(benzofuran-3-yl)methylene]-3-(4-cyclopentyl)prop-2-en-1-amine], the IC50 worked out at 0.397 ± 0.0203 µM.

As for `CN(C/C=C/c1ccccc1[N+](=O)[O-])Cc1coc2ccccc12` [Compound IA-22, (E)-N-methyl-N-[(benzofuran-3-yl)methylene]-3-(2-nitrophenyl)-prop-2-en-1-amine], the IC50 was greater than 1 µM.

Regarding `Cc1ccccc1/C=C/CN(C)Cc1coc2ccccc12` [Compound IA-36, (E)-N-methyl-N-[(benzofuran-3-yl)methylene]-3-(2-methylphenyl)-prop-2-en-1-amine], the IC50 amounted to 0.0864 ± 0.0006 µM.

As to `C/C=C/CN(C)Cc1coc2ccccc12` [Compound IA-23], the IC50 was greater than 1 µM.

Regarding `CN(C/C=C/c1ccc(C#N)cc1)Cc1coc2ccccc12` [Compound IA-24, (E)-N-Methyl-N-[(benzofuran-3-yl)methylene]-3-(4-cyanophenyl)-prop-2-en-1-amine], the IC50 was 0.0801 ± 0.0047 µM.

One may read the IC50 as the concentration at which inhibition is half-maximal.

The values above are taken from patent US10829464B2, “Benzoheterocyclic alkylamine compounds and use thereof” (priority 2016, dated 2020).
